Values quoted from earlier work in patent US8389778B2, “Preparation of mannitol modification III” (Aptuit (West Lafayette), LLC, priority 2007, dated 2013).

Structure (SMILES) | stability of the hemihydrate (ambient conditions) | phase transformation of modification III into modification I on storage (kept dry, period of 5 years)
OC[C@@H](O)[C@@H](O)[C@H](O)[C@H](O)CO [hemihydrate, Mannitol hemihydrate] | unstable under ambient conditions | 
OC[C@@H](O)[C@@H](O)[C@H](O)[C@H](O)CO [modification III, mannitol] |  | did not transform into modification I over a period of 5 years
